Data on three compounds can be found in patent publication US6313333A, “Multinuclear cationic platinum complexes with antitumor activity” (Setanta Therapeutics, Inc., priority 1997, dated 2001).

The subject of this data set is murine leukemia L1210. The conditions noted are these: l1210 cells.

With `N.N.N.N.N.N.NCCCCCCN.NCCCCCCN.O=[N+]([O-])[O-].O=[N+]([O-])[O-].O=[N+]([O-])[O-].O=[N+]([O-])[O-].[Cl-].[Cl-].[Pt+2].[Pt+2].[Pt+2]` [t,t,t-[PtCl(NH3)2 H2 N(CH2)6 NH2 Pt(NH3)2 H2 N(CH2)6 NH2 PtCl(NH3)2]^+4.4NO3^-], the “IC50, "in vitro" cytotoxic activity against murine leukemia L1210” value (“IC50, "in vitro" cytotoxic activity” below) was 0.38 µg/mL.

In the case of “t,t,t,t,t-[PtCl(NH3)2 H2 N--(CH2)6 --NH2 Pt--(NH3)2 H2 N--(CH2)6 --NH2 Pt(NH3)2 H2 N--(CH2)6 --NH2 Pt(NH3)2 H2 N--(CH2)6 --NH2 PtCl(NH3)2 ]^+8.8Cl^-”, the “IC50, "in vitro" cytotoxic activity” value was 0.3 µg/mL.

With “t,t-[PtCl(NH3)2 H2 N--(CH2)6 --NH2 PtCl(NH3)2 ]^+2.2NO3^-”, the “IC50, "in vitro" cytotoxic activity” value is 2.3 µg/mL.
